According to ChEMBL document CHEMBL4270485, “Determination of Gymnemic Acid I as a Protein Biosynthesis Inhibitor Using Chemical Proteomics” (J Nat Prod, 2017):

Columns and labels:
[1] = molecular target: T1, 80S Ribosome (Homo sapiens) (UniProt P08865+P42677+P62753+P15880+P23396+P61247+P62701+P22090+P46782+P62081+P62241+P46781+P46783+P62280+P25398+P62277+P62263+P62841+P62244+P62249+P08708+P62269+P39019+P60866+P63220+P62266+P62847+P62851+P62854+P62979+P62857+P62273+P62861+P39023+P36578+P46777+Q02878+P18124+P62424+P62917+P32969+P27635+P62906+P62913+P30050+P26373+P40429+P50914+P61313+P18621+Q07020+Q02543+P84098+P46778+P35268+P62829+P62750+P83731+P61254+P61353+P46776+P46779+P47914+P62888+P62899+P62910+P49207+P42766+P18077+Q9Y3U8+P83881+P61927+P61513+P63173+P62891+P62945+P05388+P05386); test: Binding affinity to 60S ribosomal protein L13 in human Hela cells lysates assessed as protein enrichment by measuring normalized heavy/light ratio at by nano-LC-ESIMS/MS analysis; format: cell-free
[2] = molecular target: T1, 80S Ribosome (Homo sapiens); test: Binding affinity to 60S ribosomal protein L31 in human Hela cells lysates assessed as protein enrichment by measuring normalized heavy/light ratio at by nano-LC-ESIMS/MS analysis; format: cell-free
[3] = molecular target: T1, 80S Ribosome (Homo sapiens); test: Binding affinity to 60S ribosomal protein L4 in human Hela cells lysates assessed as protein enrichment by measuring normalized heavy/light ratio at by nano-LC-ESIMS/MS analysis; format: cell-free
[4] = molecular target: T1, 80S Ribosome (Homo sapiens); test: Binding affinity to 40S ribosomal protein S3 in human Hela cells lysates assessed as protein enrichment by measuring normalized heavy/light ratio at by nano-LC-ESIMS/MS analysis; format: cell-free
[5] = molecular target: Heat shock cognate 71 kDa protein (Homo sapiens) (UniProt P11142); test: Binding affinity to heat shock cognate 71 kDa protein in human Hela cells lysates assessed as protein enrichment by measuring normalized heavy/light ratio at by nano-LC-ESIMS/MS analysis; format: cell-free
[6] = molecular target: Tubulin beta-5 chain (Homo sapiens) (UniProt P07437); test: Binding affinity to tubulin beta chain in human Hela cells lysates assessed as protein enrichment by measuring normalized heavy/light ratio at by nano-LC-ESIMS/MS analysis; format: cell-free
[7] = molecular target: Eukaryotic initiation factor 4A-II (Homo sapiens) (UniProt Q14240); test: Binding affinity to eukaryotic initiation factor 4A-II in human Hela cells lysates assessed as protein enrichment by measuring normalized heavy/light ratio at by nano-LC-ESIMS/MS analysis; format: cell-free
[8] = molecular target: Stress-70 protein, mitochondrial (Homo sapiens) (UniProt P38646); test: Binding affinity to stress-70 protein in human Hela cells lysates assessed as protein enrichment by measuring normalized heavy/light ratio at by nano-LC-ESIMS/MS analysis; format: cell-free
[9] = molecular target: T1, 80S Ribosome (Homo sapiens); test: Binding affinity to 40S ribosomal protein S26 in human Hela cells lysates assessed as protein enrichment by measuring normalized heavy/light ratio at by nano-LC-ESIMS/MS analysis; format: cell-free
[10] = molecular target: Heat shock protein HSP 90-beta (Homo sapiens) (UniProt P08238); test: Binding affinity to heat shock protein 90-beta in human Hela cells lysates assessed as protein enrichment by measuring normalized heavy/light ratio at by nano-LC-ESIMS/MS analysis; format: cell-free
[11] = molecular target: Elongation factor 2 (Homo sapiens) (UniProt P13639); test: Binding affinity to elongation factor 2 in human Hela cells lysates assessed as protein enrichment by measuring normalized heavy/light ratio at by nano-LC-ESIMS/MS analysis; format: cell-free
[12] = molecular target: T1, 80S Ribosome (Homo sapiens); test: Binding affinity to 60S acidic ribosomal protein P1 in human Hela cells lysates assessed as protein enrichment by measuring normalized heavy/light ratio at by nano-LC-ESIMS/MS analysis; format: cell-free
[13] = molecular target: T1, 80S Ribosome (Homo sapiens); test: Binding affinity to 60S ribosomal protein L23a in human Hela cells lysates assessed as protein enrichment by measuring normalized heavy/light ratio at by nano-LC-ESIMS/MS analysis; format: cell-free
[14] = molecular target: D-3-phosphoglycerate dehydrogenase (Homo sapiens) (UniProt O43175); test: Binding affinity to D3-phosphoglycerate dehydrogenase in human Hela cells lysates assessed as protein enrichment by measuring normalized heavy/light ratio at by nano-LC-ESIMS/MS analysis; format: cell-free
[15] = molecular target: T1, 80S Ribosome (Homo sapiens); test: Binding affinity to 60S ribosomal protein L35 in human Hela cells lysates assessed as protein enrichment by measuring normalized heavy/light ratio at by nano-LC-ESIMS/MS analysis; format: cell-free
HeLa = test: Inhibition of protein synthesis in human HeLa cells at 50 to 500 uM pre-incubated for 1 hr before L-[35S]-cysteine and L-[35S]-methionine addition and measured after 1 hr by Comassie staining based autoradiography; format: functional, cell-based
[16] = molecular target: T1, 80S Ribosome (Homo sapiens); test: Binding affinity to 40S ribosomal protein S4 in human Hela cells lysates assessed as protein enrichment by measuring normalized heavy/light ratio at by nano-LC-ESIMS/MS analysis; format: cell-free
Oryctolagus cuniculus = species on record: Oryctolagus cuniculus; test: Inhibition of protein synthesis in rabbit reticulocytes pre-incubated for 30 mins before labeled-lysine-t-RNA and amino acid mixture addition and measured after 1 hr by luciferase reporter gene assay; format: functional, cell-based
[17] = molecular target: T1, 80S Ribosome (Homo sapiens); test: Binding affinity to 40S ribosomal protein S2 in human Hela cells lysates assessed as protein enrichment by measuring normalized heavy/light ratio at by nano-LC-ESIMS/MS analysis; format: cell-free
[18] = molecular target: T1, 80S Ribosome (Homo sapiens); test: Binding affinity to 60S ribosomal protein L38 in human Hela cells lysates assessed as protein enrichment by measuring normalized heavy/light ratio at by nano-LC-ESIMS/MS analysis; format: cell-free
[19] = molecular target: Alpha-enolase (Homo sapiens) (UniProt P06733); test: Binding affinity to alpha-enolase in human Hela cells lysates assessed as protein enrichment by measuring normalized heavy/light ratio at by nano-LC-ESIMS/MS analysis; format: cell-free
[20] = molecular target: Poly(rC)-binding protein 2 (Homo sapiens) (UniProt Q15366); test: Binding affinity to poly(rC)-binding protein 2 in human Hela cells lysates assessed as protein enrichment by measuring normalized heavy/light ratio at by nano-LC-ESIMS/MS analysis; format: cell-free
[21] = molecular target: Rho-related GTP-binding protein RhoQ (Homo sapiens) (UniProt P17081); test: Binding affinity to rho-related GTP-binding protein in human Hela cells lysates assessed as protein enrichment by measuring normalized heavy/light ratio at by nano-LC-ESIMS/MS analysis; format: cell-free
[22] = molecular target: Ras-related protein Rab-7a (Homo sapiens) (UniProt P51149); test: Binding affinity to ras-related protein rab-7a in human Hela cells lysates assessed as protein enrichment by measuring normalized heavy/light ratio at by nano-LC-ESIMS/MS analysis; format: cell-free
[23] = molecular target: L-lactate dehydrogenase A chain (Homo sapiens) (UniProt P00338); test: Binding affinity to L-lactate dehydrogenase A chain in human Hela cells lysates assessed as protein enrichment by measuring normalized heavy/light ratio at by nano-LC-ESIMS/MS analysis; format: cell-free
[24] = molecular target: Alkyldihydroxyacetonephosphate synthase, peroxisomal (Homo sapiens) (UniProt O00116); test: Binding affinity to alkyldihydroxyacetone phosphate synthase in human Hela cells lysates assessed as protein enrichment by measuring normalized heavy/light ratio at by nano-LC-ESIMS/MS analysis; format: cell-free
Chain of Alkyldihydroxyacetonephosphate synthase, peroxisomal (Homo sapiens) (O00116 whole entry): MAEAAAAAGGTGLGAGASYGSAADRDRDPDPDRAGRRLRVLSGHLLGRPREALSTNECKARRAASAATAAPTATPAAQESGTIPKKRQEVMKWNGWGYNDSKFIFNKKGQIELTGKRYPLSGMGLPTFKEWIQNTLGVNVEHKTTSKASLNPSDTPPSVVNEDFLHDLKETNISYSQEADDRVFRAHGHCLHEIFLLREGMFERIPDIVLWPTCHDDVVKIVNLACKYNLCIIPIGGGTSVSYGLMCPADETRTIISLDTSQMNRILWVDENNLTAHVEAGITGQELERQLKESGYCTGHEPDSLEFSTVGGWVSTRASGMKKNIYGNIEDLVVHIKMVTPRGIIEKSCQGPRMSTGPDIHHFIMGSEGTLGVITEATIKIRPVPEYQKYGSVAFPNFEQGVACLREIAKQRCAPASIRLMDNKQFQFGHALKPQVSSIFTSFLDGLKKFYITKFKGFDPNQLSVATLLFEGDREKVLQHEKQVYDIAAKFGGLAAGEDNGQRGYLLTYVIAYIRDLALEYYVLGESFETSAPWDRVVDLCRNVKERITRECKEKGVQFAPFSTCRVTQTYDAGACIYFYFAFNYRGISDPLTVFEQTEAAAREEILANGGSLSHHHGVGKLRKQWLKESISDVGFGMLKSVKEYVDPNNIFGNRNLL

Chain of D-3-phosphoglycerate dehydrogenase (Homo sapiens) (O43175 whole entry): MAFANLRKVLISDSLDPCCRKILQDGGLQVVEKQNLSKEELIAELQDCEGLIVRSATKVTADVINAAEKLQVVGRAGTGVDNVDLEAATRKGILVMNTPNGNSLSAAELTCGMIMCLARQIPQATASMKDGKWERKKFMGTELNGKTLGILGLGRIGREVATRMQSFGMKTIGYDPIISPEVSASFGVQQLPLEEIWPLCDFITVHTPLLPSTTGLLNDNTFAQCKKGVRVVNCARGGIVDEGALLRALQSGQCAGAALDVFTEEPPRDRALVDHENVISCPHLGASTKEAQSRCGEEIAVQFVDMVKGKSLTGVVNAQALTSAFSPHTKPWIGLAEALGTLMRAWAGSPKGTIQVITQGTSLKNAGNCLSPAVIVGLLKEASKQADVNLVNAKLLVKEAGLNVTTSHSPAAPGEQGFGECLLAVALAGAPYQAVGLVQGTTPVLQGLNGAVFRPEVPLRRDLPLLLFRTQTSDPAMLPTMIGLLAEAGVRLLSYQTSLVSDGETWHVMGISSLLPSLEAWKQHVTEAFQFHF
Chain of Eukaryotic initiation factor 4A-II (Homo sapiens) (Q14240 whole entry): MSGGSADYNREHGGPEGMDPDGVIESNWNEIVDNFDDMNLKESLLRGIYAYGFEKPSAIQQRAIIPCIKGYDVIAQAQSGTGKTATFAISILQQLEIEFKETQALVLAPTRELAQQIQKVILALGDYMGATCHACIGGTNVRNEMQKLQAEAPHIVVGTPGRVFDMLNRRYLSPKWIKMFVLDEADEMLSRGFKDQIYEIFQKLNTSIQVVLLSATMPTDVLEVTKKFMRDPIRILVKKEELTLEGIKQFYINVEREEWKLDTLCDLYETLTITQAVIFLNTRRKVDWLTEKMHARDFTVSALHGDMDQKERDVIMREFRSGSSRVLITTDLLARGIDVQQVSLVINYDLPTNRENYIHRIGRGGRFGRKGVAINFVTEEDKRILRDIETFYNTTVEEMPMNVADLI
Chain of Tubulin beta-5 chain (Homo sapiens) (P07437 whole entry): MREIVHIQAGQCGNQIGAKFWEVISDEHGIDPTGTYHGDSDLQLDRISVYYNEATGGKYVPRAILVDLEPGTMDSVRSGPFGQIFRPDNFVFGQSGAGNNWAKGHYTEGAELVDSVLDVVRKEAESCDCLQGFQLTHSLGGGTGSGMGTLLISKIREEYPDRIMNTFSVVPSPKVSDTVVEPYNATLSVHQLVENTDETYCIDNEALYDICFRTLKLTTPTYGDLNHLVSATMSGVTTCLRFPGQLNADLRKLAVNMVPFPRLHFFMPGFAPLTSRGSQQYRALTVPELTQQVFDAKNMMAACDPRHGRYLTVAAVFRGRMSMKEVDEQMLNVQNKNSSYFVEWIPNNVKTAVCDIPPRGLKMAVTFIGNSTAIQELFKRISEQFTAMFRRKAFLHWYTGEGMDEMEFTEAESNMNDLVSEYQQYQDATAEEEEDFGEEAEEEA
Chain of Rho-related GTP-binding protein RhoQ (Homo sapiens) (P17081 whole entry): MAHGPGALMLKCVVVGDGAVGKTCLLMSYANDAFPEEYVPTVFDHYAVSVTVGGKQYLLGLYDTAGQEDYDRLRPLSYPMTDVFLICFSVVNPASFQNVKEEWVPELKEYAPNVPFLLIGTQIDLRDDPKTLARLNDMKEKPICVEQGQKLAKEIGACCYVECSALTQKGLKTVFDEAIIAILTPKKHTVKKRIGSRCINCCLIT
Chain of Heat shock cognate 71 kDa protein (Homo sapiens) (P11142 2-646 limits assumed): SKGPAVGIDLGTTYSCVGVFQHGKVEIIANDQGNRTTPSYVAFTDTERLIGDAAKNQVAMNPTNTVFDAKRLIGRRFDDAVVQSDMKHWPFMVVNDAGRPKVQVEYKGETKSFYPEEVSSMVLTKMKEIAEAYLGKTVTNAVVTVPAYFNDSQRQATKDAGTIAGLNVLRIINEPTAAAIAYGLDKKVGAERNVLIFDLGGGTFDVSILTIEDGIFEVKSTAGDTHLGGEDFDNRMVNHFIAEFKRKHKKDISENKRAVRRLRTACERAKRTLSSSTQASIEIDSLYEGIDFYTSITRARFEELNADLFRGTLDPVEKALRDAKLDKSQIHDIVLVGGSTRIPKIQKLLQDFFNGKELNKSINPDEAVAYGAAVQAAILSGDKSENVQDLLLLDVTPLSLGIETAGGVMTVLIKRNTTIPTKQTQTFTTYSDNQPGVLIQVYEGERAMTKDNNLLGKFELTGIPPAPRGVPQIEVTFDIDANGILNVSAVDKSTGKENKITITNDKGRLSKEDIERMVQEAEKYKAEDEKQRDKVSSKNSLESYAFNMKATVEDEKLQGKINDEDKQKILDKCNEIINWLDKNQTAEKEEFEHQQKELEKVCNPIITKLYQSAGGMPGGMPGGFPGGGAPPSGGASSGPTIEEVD
Chain of Stress-70 protein, mitochondrial (Homo sapiens) (P38646 whole entry): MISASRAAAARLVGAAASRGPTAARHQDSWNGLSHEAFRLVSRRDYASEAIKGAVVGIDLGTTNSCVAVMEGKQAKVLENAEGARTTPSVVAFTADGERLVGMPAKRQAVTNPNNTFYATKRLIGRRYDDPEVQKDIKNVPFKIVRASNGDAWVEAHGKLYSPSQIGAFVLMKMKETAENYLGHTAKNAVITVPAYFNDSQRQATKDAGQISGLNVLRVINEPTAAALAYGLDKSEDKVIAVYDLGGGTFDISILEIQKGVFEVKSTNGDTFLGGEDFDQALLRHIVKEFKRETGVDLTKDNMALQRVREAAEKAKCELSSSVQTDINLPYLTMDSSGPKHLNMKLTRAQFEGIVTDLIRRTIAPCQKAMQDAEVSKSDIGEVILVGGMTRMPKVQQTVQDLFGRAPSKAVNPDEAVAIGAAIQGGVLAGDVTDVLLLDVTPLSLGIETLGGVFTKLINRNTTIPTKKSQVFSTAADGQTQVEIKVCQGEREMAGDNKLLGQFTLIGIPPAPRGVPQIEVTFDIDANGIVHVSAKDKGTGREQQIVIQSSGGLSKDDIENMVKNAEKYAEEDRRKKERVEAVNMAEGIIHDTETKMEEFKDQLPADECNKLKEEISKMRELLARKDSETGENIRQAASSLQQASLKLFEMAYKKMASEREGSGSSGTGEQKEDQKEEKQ
Chain of Heat shock protein HSP 90-beta (Homo sapiens) (P08238 whole entry): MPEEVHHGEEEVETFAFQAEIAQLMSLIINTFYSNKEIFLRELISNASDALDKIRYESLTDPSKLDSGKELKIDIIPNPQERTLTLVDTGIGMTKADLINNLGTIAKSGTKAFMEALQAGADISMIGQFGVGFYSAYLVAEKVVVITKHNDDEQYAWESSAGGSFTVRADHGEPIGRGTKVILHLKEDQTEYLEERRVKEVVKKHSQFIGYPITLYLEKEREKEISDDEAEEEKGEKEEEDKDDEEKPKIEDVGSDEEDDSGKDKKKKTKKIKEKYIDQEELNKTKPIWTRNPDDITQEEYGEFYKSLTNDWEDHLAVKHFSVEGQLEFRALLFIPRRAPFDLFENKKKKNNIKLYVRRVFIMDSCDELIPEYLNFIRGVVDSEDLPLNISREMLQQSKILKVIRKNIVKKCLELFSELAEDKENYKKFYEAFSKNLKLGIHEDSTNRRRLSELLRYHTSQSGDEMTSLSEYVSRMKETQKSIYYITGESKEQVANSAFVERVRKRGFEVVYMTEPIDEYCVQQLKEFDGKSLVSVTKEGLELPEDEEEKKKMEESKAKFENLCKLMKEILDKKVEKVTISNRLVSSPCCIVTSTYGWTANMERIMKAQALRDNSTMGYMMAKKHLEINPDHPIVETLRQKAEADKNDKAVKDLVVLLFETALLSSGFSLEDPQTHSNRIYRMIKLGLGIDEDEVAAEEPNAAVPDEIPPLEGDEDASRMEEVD
Chain of Alpha-enolase (Homo sapiens) (P06733 whole entry): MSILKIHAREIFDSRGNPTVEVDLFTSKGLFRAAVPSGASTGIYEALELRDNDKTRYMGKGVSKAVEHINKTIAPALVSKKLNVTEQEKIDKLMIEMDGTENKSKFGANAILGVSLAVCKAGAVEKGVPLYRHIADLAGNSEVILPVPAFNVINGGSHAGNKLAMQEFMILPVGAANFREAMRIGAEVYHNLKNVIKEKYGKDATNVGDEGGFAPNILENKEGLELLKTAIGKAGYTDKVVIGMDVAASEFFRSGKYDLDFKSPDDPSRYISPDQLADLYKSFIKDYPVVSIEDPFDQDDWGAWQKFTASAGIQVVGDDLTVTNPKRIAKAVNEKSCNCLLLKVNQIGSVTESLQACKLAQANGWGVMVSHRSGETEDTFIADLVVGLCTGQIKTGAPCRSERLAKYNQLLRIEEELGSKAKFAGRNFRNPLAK
Chain of Ras-related protein Rab-7a (Homo sapiens) (P51149 whole entry): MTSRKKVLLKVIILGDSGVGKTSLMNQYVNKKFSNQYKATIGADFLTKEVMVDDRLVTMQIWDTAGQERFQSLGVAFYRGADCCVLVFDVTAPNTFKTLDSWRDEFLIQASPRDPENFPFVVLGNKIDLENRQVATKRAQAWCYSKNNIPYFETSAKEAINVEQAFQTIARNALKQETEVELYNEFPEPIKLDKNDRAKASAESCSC

Ratio [1]: 0.332 | Ratio [2]: 0.439 | Ratio [3]: 0.396 | Ratio [4]: 0.269 | Ratio [5]: 0.615 | Ratio [6]: 0.52 | Ratio [7]: 0.404 | Ratio [8]: 0.751 | Ratio [9]: 0.158 | Ratio [10]: 0.737 | Ratio [11]: 0.688 | Ratio [12]: 0.27 | Ratio [13]: 0.313 | Ratio [14]: 0.509 | Ratio [15]: 0.062 | Ratio [16]: 0.16 | inhibition (Oryctolagus cuniculus): Dose-dependent effect | Ratio [17]: 0.114 | Ratio [18]: 0.33 | Ratio [19]: 0.811 | Ratio [20]: 0.633 | Ratio [21]: 0.706 | Ratio [22]: 0.568 | Ratio [23]: 0.48 | Ratio [24]: 0.955
Structure (SMILES): C/C=C(\C)C(=O)O[C@H]1[C@H](O)[C@]2(COC(C)=O)[C@@H](O)C[C@]3(C)C(=CC[C@@H]4[C@@]5(C)CC[C@H](O[C@@H]6O[C@H](C(=O)O)[C@@H](O)[C@H](O)[C@H]6O)[C@@](C)(CO)[C@@H]5CC[C@]43C)[C@@H]2CC1(C)C
inhibition (HeLa): Dose-dependent effect
